Blank lines part the entries; values can stand above or below the compound they belong to.
Key:
Assay in all cases: Standardized radiometric kinase assays, percentage of activity at 0.5 μM;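 also: Read-out is ³³P-labelled substrate protein phosphorylated by each kinase, captured on filters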
[1] = biological target: each individual kinase of the panel (Homo sapiens, UniProt P21802); conditions: for % Activity: FGFR2(h)
[2] = biological target: each individual kinase of the panel (Homo sapiens, UniProt P17612); conditions: for % Activity: PKA(h)
[3] = biological target: each individual kinase of the panel (Homo sapiens, UniProt P07948); conditions: for % Activity: Lyn(h)
each individual kinase of the panel (Homo sapiens, UniProt P07948), sequence (P07948 2-512 limits assumed): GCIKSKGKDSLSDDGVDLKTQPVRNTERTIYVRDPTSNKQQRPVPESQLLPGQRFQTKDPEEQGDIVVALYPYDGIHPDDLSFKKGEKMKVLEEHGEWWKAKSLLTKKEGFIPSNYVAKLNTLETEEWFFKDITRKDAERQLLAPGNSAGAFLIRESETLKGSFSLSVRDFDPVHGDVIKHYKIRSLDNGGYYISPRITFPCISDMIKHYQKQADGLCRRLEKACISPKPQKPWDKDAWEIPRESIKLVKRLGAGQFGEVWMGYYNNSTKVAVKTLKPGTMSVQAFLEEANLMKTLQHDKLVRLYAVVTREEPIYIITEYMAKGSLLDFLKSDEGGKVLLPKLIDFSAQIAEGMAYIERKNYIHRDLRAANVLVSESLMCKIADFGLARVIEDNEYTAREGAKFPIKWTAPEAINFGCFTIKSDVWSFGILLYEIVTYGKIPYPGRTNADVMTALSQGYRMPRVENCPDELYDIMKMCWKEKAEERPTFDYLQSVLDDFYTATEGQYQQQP

[4] = biological target: each individual kinase of the panel (Homo sapiens, UniProt Q12866); conditions: for % Activity: Mer(h)
each individual kinase of the panel (Homo sapiens, UniProt Q12866), sequence (Q12866 21-999 limits assumed): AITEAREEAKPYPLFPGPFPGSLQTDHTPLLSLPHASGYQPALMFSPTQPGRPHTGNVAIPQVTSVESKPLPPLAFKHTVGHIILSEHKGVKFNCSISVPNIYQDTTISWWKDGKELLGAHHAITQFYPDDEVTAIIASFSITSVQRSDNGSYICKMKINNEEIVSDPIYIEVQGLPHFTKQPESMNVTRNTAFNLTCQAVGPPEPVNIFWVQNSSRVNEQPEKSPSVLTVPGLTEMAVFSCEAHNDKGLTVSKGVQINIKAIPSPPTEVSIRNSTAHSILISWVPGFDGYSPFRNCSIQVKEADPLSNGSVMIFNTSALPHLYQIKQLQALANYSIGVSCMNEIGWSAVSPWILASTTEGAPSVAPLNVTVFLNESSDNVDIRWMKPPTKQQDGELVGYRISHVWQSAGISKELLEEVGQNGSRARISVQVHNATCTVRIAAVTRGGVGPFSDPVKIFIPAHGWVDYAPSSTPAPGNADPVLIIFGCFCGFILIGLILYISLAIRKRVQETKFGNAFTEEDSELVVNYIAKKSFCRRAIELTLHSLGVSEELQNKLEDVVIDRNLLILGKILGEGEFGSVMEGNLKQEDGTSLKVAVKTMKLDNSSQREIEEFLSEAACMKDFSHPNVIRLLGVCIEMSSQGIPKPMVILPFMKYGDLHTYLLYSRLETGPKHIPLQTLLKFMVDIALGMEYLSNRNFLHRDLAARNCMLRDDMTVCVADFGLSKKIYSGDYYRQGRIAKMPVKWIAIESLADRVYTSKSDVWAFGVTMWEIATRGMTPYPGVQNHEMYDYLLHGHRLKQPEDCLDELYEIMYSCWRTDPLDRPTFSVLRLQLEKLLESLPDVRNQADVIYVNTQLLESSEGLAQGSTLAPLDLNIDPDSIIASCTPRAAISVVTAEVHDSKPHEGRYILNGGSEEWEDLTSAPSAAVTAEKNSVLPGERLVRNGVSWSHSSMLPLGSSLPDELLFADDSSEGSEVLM

[5] = biological target: each individual kinase of the panel (Homo sapiens, UniProt P42345); conditions: for % Activity: mTOR(h)
[6] = biological target: each individual kinase of the panel (Homo sapiens, UniProt Q14012); conditions: for % Activity: CaMKI(h)
[7] = biological target: each individual kinase of the panel (Homo sapiens, UniProt P00533); conditions: for % Activity: EGFR(h)
[8] = biological target: each individual kinase of the panel (Homo sapiens, UniProt P11362); conditions: for % Activity: FGFR1(h)
[9] = biological target: each individual kinase of the panel (Homo sapiens, UniProt Q9UM73)
[10] = biological target: each individual kinase of the panel (Homo sapiens, UniProt P16234); conditions: for % Activity: PDGFRα(h)
[11] = biological target: each individual kinase of the panel (Homo sapiens, UniProt P51812); conditions: for % Activity: Rsk2(h)
[12] = biological target: each individual kinase of the panel (Homo sapiens, UniProt P06493); conditions: for % Activity: CDK1/cyclinB(h)
[13] = biological target: each individual kinase of the panel (Homo sapiens, UniProt P24941); conditions: for % Activity: CDK2/cyclinA(h)
[14] = biological target: each individual kinase of the panel (Homo sapiens, UniProt P12931); conditions: for % Activity: cSRC(h)
[15] = biological target: each individual kinase of the panel (Homo sapiens, UniProt Q13043); conditions: for % Activity: MST1(h)
[16] = biological target: each individual kinase of the panel (Homo sapiens, UniProt O43318); conditions: for % Activity: TAK1(h)
[17] = biological target: each individual kinase of the panel (Homo sapiens, UniProt Q15303); conditions: for % Activity: ErbB4(h)
[18] = biological target: each individual kinase of the panel (Homo sapiens, UniProt Q15349); conditions: for % Activity: Rsk3(h)
[19] = biological target: each individual kinase of the panel (Homo sapiens, UniProt P50750); conditions: for % Activity: CDK9/cyclin T1 (h)
[20] = biological target: each individual kinase of the panel (Homo sapiens, UniProt Q9H2X6); conditions: for % Activity: HIPK2(h)
[21] = biological target: each individual kinase of the panel (Homo sapiens, UniProt P35968); conditions: for % Activity: KDR(h)
each individual kinase of the panel (Homo sapiens, UniProt P35968), sequence (P35968 20-1356 limits assumed): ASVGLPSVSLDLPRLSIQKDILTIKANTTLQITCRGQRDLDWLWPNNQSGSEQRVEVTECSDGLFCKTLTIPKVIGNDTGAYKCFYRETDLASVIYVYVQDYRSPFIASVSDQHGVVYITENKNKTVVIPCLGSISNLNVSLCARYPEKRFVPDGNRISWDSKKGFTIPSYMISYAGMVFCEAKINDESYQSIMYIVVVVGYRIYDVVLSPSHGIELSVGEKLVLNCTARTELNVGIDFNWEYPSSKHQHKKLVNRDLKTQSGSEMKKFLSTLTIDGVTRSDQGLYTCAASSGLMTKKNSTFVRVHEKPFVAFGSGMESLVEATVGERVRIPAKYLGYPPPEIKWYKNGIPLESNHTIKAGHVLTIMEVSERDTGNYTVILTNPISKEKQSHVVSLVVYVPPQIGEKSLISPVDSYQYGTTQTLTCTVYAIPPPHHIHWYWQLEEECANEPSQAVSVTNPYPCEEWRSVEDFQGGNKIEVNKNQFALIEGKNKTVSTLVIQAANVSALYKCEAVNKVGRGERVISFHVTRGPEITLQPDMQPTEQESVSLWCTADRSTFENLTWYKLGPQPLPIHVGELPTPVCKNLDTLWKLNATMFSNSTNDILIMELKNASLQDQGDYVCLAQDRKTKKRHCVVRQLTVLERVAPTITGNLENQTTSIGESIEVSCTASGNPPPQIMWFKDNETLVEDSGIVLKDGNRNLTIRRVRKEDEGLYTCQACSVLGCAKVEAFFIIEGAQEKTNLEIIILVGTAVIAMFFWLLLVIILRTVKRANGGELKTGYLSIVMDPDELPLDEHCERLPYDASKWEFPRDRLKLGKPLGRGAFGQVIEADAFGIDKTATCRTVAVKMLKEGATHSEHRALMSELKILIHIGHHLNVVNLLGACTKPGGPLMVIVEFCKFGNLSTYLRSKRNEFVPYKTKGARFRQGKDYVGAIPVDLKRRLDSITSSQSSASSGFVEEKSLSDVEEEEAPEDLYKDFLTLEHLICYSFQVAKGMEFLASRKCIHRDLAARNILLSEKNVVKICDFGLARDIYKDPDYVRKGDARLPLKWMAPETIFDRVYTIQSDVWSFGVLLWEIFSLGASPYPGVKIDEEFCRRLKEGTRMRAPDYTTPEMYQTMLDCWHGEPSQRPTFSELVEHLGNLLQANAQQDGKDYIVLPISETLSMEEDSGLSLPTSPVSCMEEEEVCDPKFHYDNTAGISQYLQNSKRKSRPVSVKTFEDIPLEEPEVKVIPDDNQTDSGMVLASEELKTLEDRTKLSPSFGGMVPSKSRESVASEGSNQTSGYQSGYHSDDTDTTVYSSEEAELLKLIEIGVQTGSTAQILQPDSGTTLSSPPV

[22] = biological target: each individual kinase of the panel (Homo sapiens, UniProt Q9H4B4)
[23] = biological target: each individual kinase of the panel (Homo sapiens, UniProt P36888, D835Y); conditions: for % Activity: Flt3(D835Y)(h)
[24] = biological target: each individual kinase of the panel (Homo sapiens, UniProt P78368); conditions: for % Activity: CK1γ2(h)
[25] = biological target: each individual kinase of the panel (Homo sapiens, UniProt Q9UK32); conditions: for % Activity: Rsk4(h)
[26] = biological target: each individual kinase of the panel (Homo sapiens, UniProt P00519); conditions: for % Activity: Abl(h)
[27] = biological target: each individual kinase of the panel (Homo sapiens, UniProt P07333)
[28] = biological target: each individual kinase of the panel (Homo sapiens, UniProt Q16832)
each individual kinase of the panel (Homo sapiens, UniProt Q16832), sequence (Q16832 22-855 limits assumed): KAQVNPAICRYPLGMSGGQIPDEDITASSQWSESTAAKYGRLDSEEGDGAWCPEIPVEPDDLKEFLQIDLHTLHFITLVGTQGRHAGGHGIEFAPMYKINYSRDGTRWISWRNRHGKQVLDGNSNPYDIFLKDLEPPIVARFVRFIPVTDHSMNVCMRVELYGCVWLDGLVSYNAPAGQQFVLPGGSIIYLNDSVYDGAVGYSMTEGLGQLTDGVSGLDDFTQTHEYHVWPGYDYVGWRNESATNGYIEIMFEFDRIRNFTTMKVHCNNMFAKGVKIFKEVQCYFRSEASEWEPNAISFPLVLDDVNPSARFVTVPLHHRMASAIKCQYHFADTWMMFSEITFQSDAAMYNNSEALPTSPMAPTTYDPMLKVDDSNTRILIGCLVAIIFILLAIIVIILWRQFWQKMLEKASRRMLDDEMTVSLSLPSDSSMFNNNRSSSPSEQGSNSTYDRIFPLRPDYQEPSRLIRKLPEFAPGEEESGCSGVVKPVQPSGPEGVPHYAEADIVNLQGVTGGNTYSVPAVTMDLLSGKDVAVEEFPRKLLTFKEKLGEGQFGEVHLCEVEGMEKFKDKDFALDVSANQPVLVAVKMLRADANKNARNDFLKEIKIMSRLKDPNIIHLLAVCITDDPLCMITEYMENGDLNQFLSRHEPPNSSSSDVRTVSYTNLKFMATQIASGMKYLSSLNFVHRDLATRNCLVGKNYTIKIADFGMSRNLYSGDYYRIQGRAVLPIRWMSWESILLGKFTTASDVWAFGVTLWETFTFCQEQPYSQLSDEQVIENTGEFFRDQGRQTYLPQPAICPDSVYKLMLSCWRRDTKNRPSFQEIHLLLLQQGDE

[29] = biological target: each individual kinase of the panel (Homo sapiens, UniProt P28482)
each individual kinase of the panel (Homo sapiens, UniProt P28482), sequence (P28482 2-360 limits assumed): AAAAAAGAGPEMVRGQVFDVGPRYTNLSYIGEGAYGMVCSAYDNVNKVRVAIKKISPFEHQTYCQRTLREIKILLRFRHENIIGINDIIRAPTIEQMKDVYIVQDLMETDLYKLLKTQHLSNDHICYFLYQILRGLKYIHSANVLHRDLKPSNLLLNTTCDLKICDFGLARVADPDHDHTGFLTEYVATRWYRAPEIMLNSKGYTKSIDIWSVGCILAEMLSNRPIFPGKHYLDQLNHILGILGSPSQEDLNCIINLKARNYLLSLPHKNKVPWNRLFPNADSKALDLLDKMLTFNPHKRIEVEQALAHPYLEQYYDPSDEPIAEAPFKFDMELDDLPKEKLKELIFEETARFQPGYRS

each individual kinase of the panel (Homo sapiens, UniProt P21802), sequence (P21802 22-821 limits assumed): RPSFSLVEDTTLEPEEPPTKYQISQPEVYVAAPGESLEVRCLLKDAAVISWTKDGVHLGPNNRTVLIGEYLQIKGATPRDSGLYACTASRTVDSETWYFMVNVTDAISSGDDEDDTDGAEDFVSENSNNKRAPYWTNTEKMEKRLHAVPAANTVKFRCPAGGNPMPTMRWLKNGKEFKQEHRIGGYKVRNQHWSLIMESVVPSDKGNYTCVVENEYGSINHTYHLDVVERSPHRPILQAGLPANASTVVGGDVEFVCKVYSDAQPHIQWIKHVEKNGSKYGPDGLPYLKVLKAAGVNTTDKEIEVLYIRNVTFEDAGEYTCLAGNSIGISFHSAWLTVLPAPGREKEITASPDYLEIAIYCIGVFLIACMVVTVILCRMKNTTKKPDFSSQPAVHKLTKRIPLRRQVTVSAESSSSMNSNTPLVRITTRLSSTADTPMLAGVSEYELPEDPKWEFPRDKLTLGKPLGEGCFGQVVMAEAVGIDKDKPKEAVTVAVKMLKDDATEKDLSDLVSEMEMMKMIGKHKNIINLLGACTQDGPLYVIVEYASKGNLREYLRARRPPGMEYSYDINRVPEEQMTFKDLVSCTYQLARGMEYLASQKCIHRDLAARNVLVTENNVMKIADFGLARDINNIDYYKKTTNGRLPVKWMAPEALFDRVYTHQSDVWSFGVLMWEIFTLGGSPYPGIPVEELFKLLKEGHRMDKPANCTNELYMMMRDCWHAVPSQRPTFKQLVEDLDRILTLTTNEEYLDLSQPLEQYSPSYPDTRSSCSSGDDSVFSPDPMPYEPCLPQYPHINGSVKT

% Activity [1]: 94% | % Activity [2]: 100% | % Activity [3]: 75% | % Activity [4]: 39% | % Activity [5]: 101% | % Activity [6]: 62% | % Activity [7]: 101% | % Activity [8]: 93% | % Activity ([9]; ALK(h)): 100% | % Activity [10]: 105% | % Activity [11]: 40% | % Activity [12]: 18% | % Activity [13]: 17% | % Activity [14]: 74% | % Activity [15]: 80% | % Activity [16]: 79% | % Activity [17]: 77% | % Activity [18]: 40% | % Activity [19]: 18% | % Activity [20]: 2% | % Activity [21]: 75% | % Activity ([22]; Plk3(h)): 102% | % Activity [23]: 2% | % Activity [24]: 63% | % Activity [25]: 41% | % Activity [26]: 92% | % Activity ([27]; Fms(h)): 42%
SMILES: NC(=O)c1cccc2c1nc(Nc1cccc(Cl)c1)c1ccncc12 [B]

% Activity [1]: 93% | % Activity ([28]; DDR2(h)): 90% | % Activity [2]: 97% | % Activity [3]: 75% | % Activity [4]: 38% | % Activity [5]: 99% | % Activity [6]: 90% | % Activity [7]: 111% | % Activity [8]: 100% | % Activity [10]: 97% | % Activity [11]: 13% | % Activity [12]: 37% | % Activity [13]: 31% | % Activity [14]: 64% | % Activity [15]: 44% | % Activity [16]: 28% | % Activity [17]: 77% | % Activity [18]: 7% | % Activity [19]: 37% | % Activity [20]: −1% | % Activity [21]: 43% | % Activity [23]: 24% | % Activity [24]: 17% | % Activity [25]: 12% | % Activity [26]: 87%
SMILES: Clc1ccccc1Nc1nc2c(-c3nnc[nH]3)cccc2c2cnccc12 [A]

Second part, the compound before the results:

SMILES: C#Cc1cccc(Nc2nc3cc(C(=O)O)ccc3c3cnccc23)c1 [drawing 1137]
FGFR2 percentage of activity [1]: 11% | DDR2 percentage of activity [28]: 12% | PKA percentage of activity [2]: −9% | LYN percentage of activity [3]: 20% | MER percentage of activity [4]: 86% | CAMK1 percentage of activity [6]: 1% | EGFR percentage of activity [7]: 24% | FGFR1 percentage of activity [8]: 23% | ALK percentage of activity [9]: −20% | PDGFRA percentage of activity [10]: −2% | RPS6KA3 percentage of activity [11]: 53% | CDK1/cyclinB percentage of activity [12]: 84% | CDK2/cyclin A percentage of activity [13]: 53% | SRC percentage of activity [14]: 22% | Src(1-530) percentage of activity [14]: 11% | ERK2 percentage of activity [29]: 21% | MST1 percentage of activity [15]: −3% | TAK1 percentage of activity [16]: 6% | ERBB4 percentage of activity [17]: 17% | RPS6KA2 percentage of activity [18]: 59% | CDK9/cyclin T1 percentage of activity [19]: 27% | HIPK2 percentage of activity [20]: 96% | VEGFR2 percentage of activity [21]: 55% | PLK3 percentage of activity [22]: −1% | FLT3(D835Y) percentage of activity [23]: 97% | CK1 gamma 2 percentage of activity [24]: 35% | RPS6KA6 percentage of activity [25]: 65% | ABL1 percentage of activity [26]: 20% | CSF1R percentage of activity [27]: −12%

SMILES: NC(=O)c1ccc2c(c1)nc(Nc1cccc(Cl)c1)c1ccncc12 [drawing 1138]
FGFR2 percentage of activity [1]: 9% | DDR2 percentage of activity [28]: 5% | PKA percentage of activity [2]: −1% | LYN percentage of activity [3]: 16% | MER percentage of activity [4]: 62% | CAMK1 percentage of activity [6]: 4% | EGFR percentage of activity [7]: 15% | FGFR1 percentage of activity [8]: 17% | ALK percentage of activity [9]: −2% | PDGFRA percentage of activity [10]: 5% | CDK1/cyclinB percentage of activity [12]: 63% | CDK2/cyclin A percentage of activity [13]: 53% | ERK2 percentage of activity [29]: 15% | MST1 percentage of activity [15]: 15% | TAK1 percentage of activity [16]: 12% | ERBB4 percentage of activity [17]: 33% | CDK9/cyclin T1 percentage of activity [19]: 45% | HIPK2 percentage of activity [20]: 89% | VEGFR2 percentage of activity [21]: 15% | PLK3 percentage of activity [22]: 0% | FLT3(D835Y) percentage of activity [23]: 99% | CK1 gamma 2 percentage of activity [24]: −5% | ABL1 percentage of activity [26]: 14% | CSF1R percentage of activity [27]: 52%

SMILES: C#Cc1cccc(Nc2nc3cc(C(=O)O)ccc3c3cncnc23)c1 [drawing 1135]
FGFR2 percentage of activity [1]: −7% | DDR2 percentage of activity [28]: −9% | MER percentage of activity [4]: 54% | mTOR percentage of activity [5]: 15% | CAMK1 percentage of activity [6]: −4% | EGFR percentage of activity [7]: −23% | FGFR1 percentage of activity [8]: −3% | ALK percentage of activity [9]: −12% | PDGFRA percentage of activity [10]: −9% | RPS6KA3 percentage of activity [11]: 34% | CDK1/cyclinB percentage of activity [12]: 48% | CDK2/cyclinE percentage of activity [13]: −13% | SRC percentage of activity [14]: −2% | Src(1-530) percentage of activity [14]: −1% | ERK2 percentage of activity [29]: 5% | MAPK2 percentage of activity [29]: −4% | MST1 percentage of activity [15]: 4% | TAK1 percentage of activity [16]: −1% | ERBB4 percentage of activity [17]: −26% | CDK9/cyclin T1 percentage of activity [19]: 0% | VEGFR2 percentage of activity [21]: 33% | PLK3 percentage of activity [22]: −6% | FLT3(D835Y) percentage of activity [23]: 83% | CK1 gamma 2 percentage of activity [24]: −7% | RPS6KA6 percentage of activity [25]: 22% | ABL1 percentage of activity [26]: 9% | CSF1R percentage of activity [27]: −74%
